For assay [1], the system named is MDA-MB-231 breast cancer cells. Put plainly: Inhibitory activity against tumor cells, CellTiter-Glo: MDA-MB-231. Type of assay: cell-based. Particulars: Homo sapiens, 120 h, MDA-MB-231, 5 days treatment. As for the experimental part:
(§1) MCF7 (ATCC #HTB-22) and T47D (ATCC #HTB-133) breast cancer cells and PANC-1 (ATCC #CRL-1469) pancreatic cancer cells were purchased from ATCC. MDA-MB-231 (Cobioer #CBP60382), HCC1806 (Cobioer #CBP60373), and MDA-MB-468 (Cobioer #CBP60387) breast cancer cells, HCT-116 (Cobioer #CBP60028) colorectal cancer cells, and OCI-AML-3 (Cobioer #CBP60817) and MV-4-11 (Cobioer #CBP60522) leukemia cells were purchased from Nanjing Cobioer Biosciences Co., Ltd.
(§2) OCI-AML-3 was cultured in RPMI 1640 medium with 20% FBS; HCC1806 and T47D were cultured in RPMI 1640 medium with 10% FBS; MCF7, MDA-MB-231, MDA-MB-468, and PANC-1 were cultured in DMEM medium with 10% FBS; MV-4-11 was cultured in IMDM medium with 20% FBS; HCT-116 was cultured in MC′5A medium with 10% FBS.
(§3) Palbociclib-resistant cells were constructed on MCF7 parent cells, designated MCF7 Palbo-R, and the culture conditions were consistent with those of the parent cells. All tumor cells were cultured in a cell incubator at 37° C. with 5% CO2. The cells were seeded at corresponding cell densities (600 cells/well for MDA-MB-231; 500 cells/well for MDA-MB-468, PANC-1, and HCT-116; 200 cells/well for MCF7 and HCC1806; 800 cells/well for MCF7 Palbo-R; 3000 cells/well for OCI-AML-3 and MV-4-11) in 384-well plates and cultured overnight in the incubator. On the second day, the cells were treated with compounds. The maximum compound concentration was 10 μM and was 3-fold diluted to obtain 9 concentrations, each tested in duplicate, and the final concentration of DMSO was 0.1%. The cells continued to be cultured in the incubator, with MDA-MB-231, PANC-1, MDA-MB-468, OCI-AML-3, and MV-4-11 being treated with drugs for 5 days and HCC1806, MCF7, MCF7 Palbo-R, and HCT116 being treated with drugs for 7 days. Cell viability was tested using the Celltiter Glo assay kit (Promega), and the testing method was consistent with the operational method provided by the kit. Readings were taken using an Envision multimode microplate reader. Data were processed using GraphPad Prism 8, and IC50 was calculated. […]

Another assay addresses CDK2/CyclinE1 (Homo sapiens, UniProt P24941). Put plainly: ADP-Glo kinase assay, CDK2. It is filed as biochemical. Particulars: 1 nM CDK2/CyclinE1, 15 μM ATP (Km), Histone H1, 60 min; read-out: inhibitory activity (IC50, nM) CDK2. On the procedure:
(§4) The ADP-Glo kinase assay was used for testing the activity of CDKs. The compounds were diluted in 384-well plates using Echo. The starting concentration was 10 μM and was 3-fold diluted to obtain 10 concentration points, each tested in duplicate, and the final concentration of DMSO in the assay system was 1%. CDK solutions (the final concentrations were 16.5 nM CDK1/CyclinB, 1 nM CDK2/CyclinE1, 16.3 nM CDK4/CyclinD1, 11.5 nM CDK5/p25, 15.7 nM CDK6/CyclinD3, 80 nM CDK7/Cyclin H/MAT1, 15.3 nM CDK9/Cyclin T1, and 150 nM CDK12/CyclinK) prepared in assay buffer were added at 2.5 μL, and the enzymes and compounds were pre-incubated at room temperature for 10 min. ATP (the concentration was Km) & substrate solutions (20 μM ATP & 0.1 mg/mL Histone H1 Protein for CDK1/CyclinB, 15 μM ATP & 0.1 mg/mL Histone H1 Protein for CDK2/CyclinE1, 200 μM ATP & 0.2 mg/mL DYRKtide peptide for CDK4/CyclinD1, 10 μM ATP & 0.1 mg/mL Histone H1 Protein for CDK5/p25, 200 μM ATP & 0.1 mg/mL Histone H1 Protein for CDK6/CyclinD3, 70 μM ATP & 0.2 mg/mL MBP for CDK7/Cyclin H/MAT1, 60 μM ATP & 0.2 mg/mL PDKtide for CDK9/Cyclin T1, and 20 μM ATP & 80 μM pS7-CTD peptide for CDK12/CyclinK) prepared in assay buffer were added at 2.5 μL. After thorough mixing, the plates were incubated at room temperature, with CDK1/4/9/12/13 incubated for 120 min and CDK2/5/6/7 incubated for 60 min. ADP-Glo reagents were added at 4 μL, and the plates were incubated at room temperature for 40 min. Kinase detection reagents were added at 8 μL, and the plates were incubated at room temperature for 40 min. Readings were taken using an Envision multimode microplate reader. Data were processed using GraphPad Prism 8, and IC50 was calculated.
[formula] • X: the logarithm of the compound concentration; Y: % inhibition.

The next assay concerns the target CDK12/CyclinK (Homo sapiens, UniProt Q9NYV4). Put plainly: ADP-Glo kinase assay, CDK12. Type of assay: biochemical. Particulars: 150 nM CDK12/CyclinK, 20 μM ATP (Km), pS7-CTD peptide, 120 min; read-out: inhibitory activity (IC50, nM) CDK12. As for the experimental part:
as §4, with “After thorough mixing, the plates were incubated at room temperature, with CDK1/4/9/12/13 incubated for 120 min and CDK2/5/6/7 incubated for 60 min. ADP-Glo reagents were added at 4 μL, and the plates were incubated at room temperature for 40 min. Kinase detection reagents were added at 8 μL, and the plates were incubated at room temperature for 40 min.” left out, “calculated. […]” for “calculated.”

The test system of assay [2] is MCF7 Palbo-R (palbociclib-resistant cells constructed on MCF7). Briefly: Inhibitory activity against tumor cells, CellTiter-Glo: MCF7 Palbo-R. Particulars: Homo sapiens, 168 h, 7 days treatment. It is filed as cell-based. On the procedure:
as §1, §2, §3

The test system of a further assay is OCI-AML-3 leukemia cells. Briefly: Inhibitory activity against tumor cells, CellTiter-Glo: OCI-AML-3. It is filed as cell-based. Particulars: Homo sapiens, 120 h, OCI-AML-3, 5 days treatment. As for the experimental part:
as §1, §2, §3

In a further assay the target is CDK5/p25 (Homo sapiens, UniProt Q00535). Put plainly: ADP-Glo kinase assay, CDK5. It is filed as biochemical. Particulars: 11.5 nM CDK5/p25, 10 μM ATP (Km), Histone H1, 60 min; read-out: inhibitory activity (IC50, nM) CDK5. As for the experimental part: as §4, with “After thorough mixing, the plates were incubated at room temperature, with CDK1/4/9/12/13 incubated for 120 min and CDK2/5/6/7 incubated for 60 min. ADP-Glo reagents were added at 4 μL, and the plates were incubated at room temperature for 40 min. Kinase detection reagents were added at 8 μL, and the plates were incubated at room temperature for 40 min.” left out, “calculated. […]” for “calculated.”

For another assay, the system named is T47D breast cancer cells. Briefly: Inhibitory activity against tumor cells, CellTiter-Glo: T47D. It is filed as cell-based. Particulars: Homo sapiens. On the procedure: as §1, §2
Palbociclib-resistant cells were constructed on MCF7 parent cells, designated MCF7 Palbo-R, and the culture conditions were consistent with those of the parent cells. All tumor cells were cultured in a cell incubator at 37° C. with 5% CO2. The cells were seeded at corresponding cell densities (600 cells/well for MDA-MB-231; 500 cells/well for MDA-MB-468, PANC-1, and HCT-116; 200 cells/well for MCF7 and HCC1806; 800 cells/well for MCF7 Palbo-R; 3000 cells/well for OCI-AML-3 and MV-4-11) in 384-well plates and cultured overnight in the incubator. On the second day, the cells were treated with compounds. The maximum compound concentration was 10 μM and was 3-fold diluted to obtain 9 concentrations, each tested in duplicate, and the final concentration of DMSO was 0.1%. The cells continued to be cultured in the incubator, with MDA-MB-231, PANC-1, MDA-MB-468, OCI-AML-3, and MV-4-11 being treated with drugs for 5 days and HCC1806, MCF7, MCF7 Palbo-R, and HCT116 being treated with drugs for 7 days. Cell viability was tested using the Celltiter Glo assay kit (Promega), and the testing method was consistent with the operational method provided by the kit. Readings were taken using an Envision multimode microplate reader. Data were processed using GraphPad Prism 8, and IC50 was calculated.
Y=Bottom+(Top−Bottom)/(1+10^((Log IC50−X)×HillSlope)). Calculation formula: • X: the logarithm of the compound concentration; Y: % inhibition.

The target in the next assay is CDK1/CyclinB (Homo sapiens, UniProt P06493). Briefly: ADP-Glo kinase assay, CDK1. It is filed as biochemical. Particulars: 16.5 nM CDK1/CyclinB, 20 μM ATP (Km), Histone H1, 120 min; read-out: inhibitory activity (IC50, nM) CDK1. On the procedure: as §4, with “After thorough mixing, the plates were incubated at room temperature, with CDK1/4/9/12/13 incubated for 120 min and CDK2/5/6/7 incubated for 60 min. ADP-Glo reagents were added at 4 μL, and the plates were incubated at room temperature for 40 min. Kinase detection reagents were added at 8 μL, and the plates were incubated at room temperature for 40 min.” left out, “calculated. […]” for “calculated.”

Assay [3] has as its system MDA-MB-468 breast cancer cells. Put plainly: Inhibitory activity against tumor cells, CellTiter-Glo: MDA-MB-468. It is filed as cell-based. Particulars: Homo sapiens, 120 h, MDA-MB-468, 5 days treatment. As for the experimental part:
as §1, §2, §3

A further assay concerns the target CDK9/Cyclin T1 (Homo sapiens, UniProt P50750). Briefly: ADP-Glo kinase assay, CDK9. It is filed as biochemical. Particulars: 15.3 nM CDK9/Cyclin T1, 60 μM ATP (Km), PDKtide, 120 min; read-out: inhibitory activity (IC50, nM) CDK9. As for the experimental part:
as §4, with “After thorough mixing, the plates were incubated at room temperature, with CDK1/4/9/12/13 incubated for 120 min and CDK2/5/6/7 incubated for 60 min. ADP-Glo reagents were added at 4 μL, and the plates were incubated at room temperature for 40 min. Kinase detection reagents were added at 8 μL, and the plates were incubated at room temperature for 40 min.” left out, “calculated. […]” for “calculated.”

Chain of CDK5/p25 (Q00535 whole entry, species assumed): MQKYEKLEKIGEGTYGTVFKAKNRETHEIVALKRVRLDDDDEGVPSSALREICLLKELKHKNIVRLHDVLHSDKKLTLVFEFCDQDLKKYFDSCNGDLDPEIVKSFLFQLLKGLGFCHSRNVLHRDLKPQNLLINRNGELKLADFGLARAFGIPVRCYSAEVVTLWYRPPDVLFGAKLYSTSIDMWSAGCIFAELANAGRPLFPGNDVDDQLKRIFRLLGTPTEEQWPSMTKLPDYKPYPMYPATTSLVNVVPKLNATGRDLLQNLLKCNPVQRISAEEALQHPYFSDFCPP
Chain of CDK5/p25 (Q15078 99-307 partner limits assumed, species assumed): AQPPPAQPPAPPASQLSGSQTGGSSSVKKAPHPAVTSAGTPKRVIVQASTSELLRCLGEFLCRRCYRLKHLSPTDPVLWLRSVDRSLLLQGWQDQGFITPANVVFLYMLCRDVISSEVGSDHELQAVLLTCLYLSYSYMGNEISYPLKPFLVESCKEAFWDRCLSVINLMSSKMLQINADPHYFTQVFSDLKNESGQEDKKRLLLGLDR
Chain of CDK12/CyclinK (Q9NYV4 whole entry, species assumed): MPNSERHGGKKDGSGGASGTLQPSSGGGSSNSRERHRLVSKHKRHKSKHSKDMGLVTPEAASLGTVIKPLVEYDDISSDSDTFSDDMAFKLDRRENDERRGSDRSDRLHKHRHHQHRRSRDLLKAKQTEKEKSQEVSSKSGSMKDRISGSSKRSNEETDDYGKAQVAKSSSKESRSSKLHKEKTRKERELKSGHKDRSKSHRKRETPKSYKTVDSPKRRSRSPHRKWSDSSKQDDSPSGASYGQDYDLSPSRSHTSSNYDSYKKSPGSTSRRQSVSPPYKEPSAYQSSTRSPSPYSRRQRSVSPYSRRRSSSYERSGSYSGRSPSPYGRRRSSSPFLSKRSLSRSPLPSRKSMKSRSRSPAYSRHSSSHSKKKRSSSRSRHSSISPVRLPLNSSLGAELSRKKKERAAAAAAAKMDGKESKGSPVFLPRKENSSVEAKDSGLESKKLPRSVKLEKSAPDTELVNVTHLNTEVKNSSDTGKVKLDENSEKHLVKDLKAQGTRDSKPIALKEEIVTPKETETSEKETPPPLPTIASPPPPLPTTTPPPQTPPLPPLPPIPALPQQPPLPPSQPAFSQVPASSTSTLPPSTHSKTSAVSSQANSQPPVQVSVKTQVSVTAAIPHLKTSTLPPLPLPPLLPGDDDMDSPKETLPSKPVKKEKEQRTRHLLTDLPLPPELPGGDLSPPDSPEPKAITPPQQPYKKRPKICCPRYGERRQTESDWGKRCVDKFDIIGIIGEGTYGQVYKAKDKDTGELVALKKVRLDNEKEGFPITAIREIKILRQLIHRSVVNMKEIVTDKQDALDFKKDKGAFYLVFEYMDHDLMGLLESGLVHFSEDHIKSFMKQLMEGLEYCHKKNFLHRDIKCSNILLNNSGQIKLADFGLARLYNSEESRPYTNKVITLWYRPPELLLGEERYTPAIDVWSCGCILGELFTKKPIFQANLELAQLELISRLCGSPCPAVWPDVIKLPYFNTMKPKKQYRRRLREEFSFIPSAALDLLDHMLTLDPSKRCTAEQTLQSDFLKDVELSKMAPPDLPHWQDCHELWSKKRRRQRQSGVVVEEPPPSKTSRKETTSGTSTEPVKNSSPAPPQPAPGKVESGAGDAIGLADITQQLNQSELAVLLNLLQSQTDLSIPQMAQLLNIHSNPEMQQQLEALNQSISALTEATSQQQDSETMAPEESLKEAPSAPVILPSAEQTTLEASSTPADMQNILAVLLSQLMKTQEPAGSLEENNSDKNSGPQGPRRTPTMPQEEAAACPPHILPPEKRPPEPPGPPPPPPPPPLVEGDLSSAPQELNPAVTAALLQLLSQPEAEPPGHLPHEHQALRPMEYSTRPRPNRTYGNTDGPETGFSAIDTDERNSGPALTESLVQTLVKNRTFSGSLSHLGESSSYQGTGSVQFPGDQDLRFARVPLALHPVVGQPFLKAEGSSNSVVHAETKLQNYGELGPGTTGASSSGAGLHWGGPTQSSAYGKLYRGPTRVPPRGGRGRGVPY
Chain of CDK12/CyclinK (O75909 whole entry partner, species assumed): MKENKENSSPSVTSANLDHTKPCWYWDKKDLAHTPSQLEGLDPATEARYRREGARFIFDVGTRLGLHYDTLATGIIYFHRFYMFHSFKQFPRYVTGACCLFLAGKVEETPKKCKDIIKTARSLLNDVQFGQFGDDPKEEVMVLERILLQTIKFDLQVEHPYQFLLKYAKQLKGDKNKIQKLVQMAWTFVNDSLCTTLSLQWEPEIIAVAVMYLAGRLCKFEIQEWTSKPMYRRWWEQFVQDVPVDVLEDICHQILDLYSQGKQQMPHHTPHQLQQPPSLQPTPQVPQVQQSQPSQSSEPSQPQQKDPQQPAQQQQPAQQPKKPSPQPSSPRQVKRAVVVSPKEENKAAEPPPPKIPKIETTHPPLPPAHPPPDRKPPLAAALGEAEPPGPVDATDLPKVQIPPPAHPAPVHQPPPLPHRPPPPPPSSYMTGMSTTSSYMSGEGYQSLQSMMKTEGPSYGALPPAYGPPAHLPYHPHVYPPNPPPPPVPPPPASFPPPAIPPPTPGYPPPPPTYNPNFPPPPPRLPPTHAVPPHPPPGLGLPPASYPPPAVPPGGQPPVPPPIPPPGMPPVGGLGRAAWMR
Chain of CDK1/CyclinB (P06493 whole entry, species assumed): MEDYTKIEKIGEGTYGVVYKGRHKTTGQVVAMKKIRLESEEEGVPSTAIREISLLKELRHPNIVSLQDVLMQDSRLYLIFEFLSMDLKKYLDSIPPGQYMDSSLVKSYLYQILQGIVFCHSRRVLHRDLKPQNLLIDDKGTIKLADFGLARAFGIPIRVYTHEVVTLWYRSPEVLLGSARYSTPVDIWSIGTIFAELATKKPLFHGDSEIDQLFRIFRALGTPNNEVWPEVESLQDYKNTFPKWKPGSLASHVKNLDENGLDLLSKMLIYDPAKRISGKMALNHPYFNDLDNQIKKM
Chain of CDK1/CyclinB (P14635 whole entry partner, species assumed): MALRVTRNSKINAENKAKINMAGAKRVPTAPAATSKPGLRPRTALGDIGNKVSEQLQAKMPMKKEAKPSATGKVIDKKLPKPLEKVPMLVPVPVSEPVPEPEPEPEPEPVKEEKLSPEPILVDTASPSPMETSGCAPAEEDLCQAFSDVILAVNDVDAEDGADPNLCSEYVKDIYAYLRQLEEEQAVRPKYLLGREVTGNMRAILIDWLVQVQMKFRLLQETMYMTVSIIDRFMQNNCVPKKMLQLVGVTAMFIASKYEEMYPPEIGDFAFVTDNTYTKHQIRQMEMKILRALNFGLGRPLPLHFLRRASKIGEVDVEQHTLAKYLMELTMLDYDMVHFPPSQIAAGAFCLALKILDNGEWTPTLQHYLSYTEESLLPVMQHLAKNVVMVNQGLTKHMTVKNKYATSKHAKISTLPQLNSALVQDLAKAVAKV
Chain of CDK9/Cyclin T1 (P50750 whole entry, species assumed): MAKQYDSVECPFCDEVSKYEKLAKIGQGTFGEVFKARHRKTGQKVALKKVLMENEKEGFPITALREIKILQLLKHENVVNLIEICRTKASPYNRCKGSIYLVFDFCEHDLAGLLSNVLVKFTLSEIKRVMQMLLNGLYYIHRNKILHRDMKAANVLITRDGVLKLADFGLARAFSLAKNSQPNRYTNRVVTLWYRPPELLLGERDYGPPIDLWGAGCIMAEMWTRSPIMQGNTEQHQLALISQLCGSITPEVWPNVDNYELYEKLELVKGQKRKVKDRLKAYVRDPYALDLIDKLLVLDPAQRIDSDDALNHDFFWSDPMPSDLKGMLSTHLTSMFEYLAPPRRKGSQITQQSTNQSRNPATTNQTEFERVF
Chain of CDK9/Cyclin T1 (O60563 whole entry partner, species assumed): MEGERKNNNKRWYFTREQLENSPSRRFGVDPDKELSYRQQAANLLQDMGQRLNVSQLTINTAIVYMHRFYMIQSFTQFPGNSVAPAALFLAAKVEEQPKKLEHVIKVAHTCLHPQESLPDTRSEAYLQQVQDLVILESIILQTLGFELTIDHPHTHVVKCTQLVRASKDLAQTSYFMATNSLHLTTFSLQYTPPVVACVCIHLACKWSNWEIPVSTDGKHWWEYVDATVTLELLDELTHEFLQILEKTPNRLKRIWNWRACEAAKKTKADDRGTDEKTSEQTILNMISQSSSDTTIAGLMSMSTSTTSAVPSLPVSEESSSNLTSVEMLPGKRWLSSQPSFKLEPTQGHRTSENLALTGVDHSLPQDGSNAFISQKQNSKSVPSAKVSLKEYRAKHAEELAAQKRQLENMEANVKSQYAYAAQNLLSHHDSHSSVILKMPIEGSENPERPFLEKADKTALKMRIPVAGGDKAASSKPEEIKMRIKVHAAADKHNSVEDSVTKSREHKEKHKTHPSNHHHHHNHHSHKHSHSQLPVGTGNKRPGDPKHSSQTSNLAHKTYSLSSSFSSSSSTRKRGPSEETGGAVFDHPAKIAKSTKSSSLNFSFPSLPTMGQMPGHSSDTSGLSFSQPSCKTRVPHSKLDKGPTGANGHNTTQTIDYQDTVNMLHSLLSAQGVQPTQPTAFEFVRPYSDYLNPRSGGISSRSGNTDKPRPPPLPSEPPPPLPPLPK

`C[C@@H]1Cc2cnc(NCc3ccn(C)n3)nc2CN1C(=O)N[C@H](CN(C)C)c1ccccc1` [Example 2, (R)—N—((S)-2-(Dimethylamino)-1-phenylethyl)-6-methyl-2-(((1-methyl-TH-pyrazol-3-yl)methyl)amino)-5,8-dihydropyrido[3,4-d]pyrimidine-7(6H)-carboxamide]: the IC50 in assay [1] was 25.4 nM; at CDK2/CyclinE1, 2330 nM; on CDK12/CyclinK, over 10000 nM; in assay [2], 40.6 nM; in the assay on OCI-AML-3 leukemia cells it was 33.2 nM; at CDK5/p25, 6310 nM. Also, the IC50 with T47D breast cancer cells is 31 nM; at CDK1/CyclinB it was over 10000 nM; in assay [3], 30 nM; on CDK9/Cyclin T1, 1580 nM.
`C[C@H](Nc1ncc2c(n1)CN(C(=O)N[C@H](CN(C)C)c1ccccc1)[C@H](C)C2)c1ccccn1` [Example 6, (R)—N—((S)-2-(Dimethylamino)-1-phenylethyl)-6-methyl-2-(((S)-1-(pyridin-2-yl)ethyl)amino)-5,8-dihydropyrido[3,4-d]pyrimidine-7(6H)-carboxamide]: the IC50 in assay [1] was 23.2 nM; on CDK2/CyclinE1 it was 1900 nM; on CDK12/CyclinK it was over 10000 nM; in assay [2], 24.6 nM; in the assay on OCI-AML-3 leukemia cells it was 33.4 nM; at CDK5/p25 it was 6420 nM. For the same compound, the IC50 in the assay with T47D breast cancer cells is 22.2 nM; on CDK1/CyclinB it was over 10000 nM; in assay [3], 21.2 nM; at CDK9/Cyclin T1 it was 4270 nM.

The values are drawn from US20260176266A1, “PIPERIDINOPYRIMIDINE DERIVATIVE, PREPARATION METHOD THEREFOR AND USE THEREOF IN MEDICINE” (TUOJIE BIOTECH (SHANGHAI) CO., LTD., priority 2022, published 2026).
